Measurements from patent publication US12344610B2, “APOL1 inhibitors and methods of use” (Maze Therapeutics, Inc., priority 2022, dated 2025).

How the values were obtained:
Type in all cases: cell-based
[1] = tested on: HEK293 clonal cell line overexpressing APOL1 G1; assay: APOL1 G1 HEK293 cell rescue assay (Example B3); settings: Homo sapiens, HEK293, HEK293 clonal line overexpressing APOL1 G1; geometric mean of at least 2 runs; † = single run; ¥ = concentration at 50% rescue estimated (no sigmoidal curve)
Procedure, shortened: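 Rescue of cell death caused by APOL1 G1 overexpression was measured in a clonal HEK293 line. Compounds were tested in duplicate on one plate, and EC50s were geometric means across at least two runs on different days. Some values are estimated 50%-rescue concentrations where curve fitting failed.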

[2] = tested on: Trypanosoma brucei Lister 427 VSG221 with APOL1 G1 recombinant protein; assay: APOL1 G1 trypanosome cell rescue assay (Example B5); settings: Trypanosoma brucei, 20 h, read-out: APOL1 G1 Trypanosome Rescue EC50, Trypanosoma brucei Lister 427 VSG221 with APOL1 G1 recombinant protein, 20 hours, CellTiter-Glo; geometric mean of at least 2 assay runs; † = single assay run
Procedure, shortened: (§1)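 Viability read by CellTiter-Glo luminescence after 20 h co-incubation (37° C, 5% CO2) of 250 trypanosomes/well in modified HMI-9 with test compound (duplicate 11-point, 2-fold dilutions, 0.4% DMSO) and APOL1 protein, […]. Protein: mature residues 28-398, E. coli inclusion-body refolded, tag cleaved, in DDM.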

[3] = tested on: Trypanosoma brucei Lister 427 VSG221 with APOL1 G2 recombinant protein; assay: APOL1 G2 trypanosome cell rescue assay (Example B5); settings: Trypanosoma brucei, 20 h, read-out: APOL1 G2 Trypanosome Rescue EC50, Trypanosoma brucei Lister 427 VSG221 with APOL1 G2 recombinant protein, 20 hours, CellTiter-Glo; geometric mean of at least 2 assay runs; † = single assay run
Procedure, shortened: as §1

SMILES: O=C1Nc2ccc(Cl)cc2C12CCN(CCOc1ccc(S(=O)(=O)[C@H]3C[C@H](O)C3)cc1)CC2 [Compound 215, 5-chloro-1′-[2-(4-{[(trans)-3-hydroxycyclobutyl]sulfonyl}phenoxy)ethyl]-1,2-dihydrospiro[indole-3,4′-piperidin]-2-one]
- EC50 [1]: 122 nM
- EC50 [2]: 97 nM
- EC50 [3]: 22.4 nM

SMILES: CS(=O)(=O)C1(c2ncc(OCCN3CCC4(CC3)C(=O)Nc3ccc(C#N)cc34)cc2F)CC1 [Compound 283, 1′-(2-{[5-fluoro-6-(1-methanesulfonylcyclopropyl)pyridin-3-yl]oxy}ethyl)-2-oxo-1,2-dihydrospiro[indole-3,4′-piperidine]-5-carbonitrile]
- EC50 [1]: 211 nM
- EC50 [2]: 235 nM
- EC50 [3]: 71.1 nM

SMILES: O=C1CCc2cc(OCCN3CCC4(CC3)C(=O)Nc3ccc(Cl)cc34)ccc2N1[C@H]1C[C@H](O)C1 [Compound 224, 5-chloro-1′-[2-({2-oxo-1-[(trans)-3-hydroxycyclobutyl]-1,2,3,4-tetrahydroquinolin-6-yl}oxy)ethyl]-1,2-dihydrospiro[indole-3,4′-piperidin]-2-one]
- EC50 [1]: 155 nM
- EC50 [2]: 92.8 nM
- EC50 [3]: 32.7 nM
